Test results reported in ChEMBL document CHEMBL1133206, “Antifungal rapamycin analogues with reduced immunosuppressive activity” (Bioorg Med Chem Lett, 2000).

How the values were obtained:
Type in all cases: functional
[1] = system: Candida albicans; experiment: In vitro antifungal activity against Candida albicans (CA 10231)
[2] = system: Pichia kudriavzevii; experiment: In vitro antifungal activity against Candida krusei (CK 28838)
[3] = system: Candida tropicalis; experiment: In vitro antifungal activity against Candida tropicalis (CT 750)
[4] = system: Candida albicans; experiment: In vitro for antifungal activity against Candida albicans (CA 579a)
[5] = system: Candida albicans; experiment: Compound was screened in vitro for antifungal and immunosuppressive activity against Candida albicans (CA 38247)
[6] = system: Candida albicans; experiment: Compound was screened in vitro for antifungal activity against Candida albicans (CA 442)
[7] = system: Candida albicans; experiment: Compound was screened in vitro for antifungal activity against Candida albicans (CA 62376)

Measured: MIC

CO[C@H]1C[C@@H]2CC[C@@H](C)[C@@](O)(O2)C(=O)C(=O)N2CCCC[C@H]2C(=O)O[C@H]([C@H](C)C[C@@H]2CC[C@@H](OC(=O)c3ccc([N+](=O)[O-])cc3)[C@H](OC)C2)CC(=O)[C@H](C)/C=C(\C)[C@@H](O)[C@@H](OC)C(=O)[C@H](C)C[C@H](C)CCCC/C=C/1C
> 100 µg/mL: [1] | [2] | [3] | [4] | [5] | [6] | [7]
